Measured values from patent publication US10766888B1, “HMOX1 inducers” (Mitobridge Inc., priority 2019, dated 2020).
Converted amounts (≈) assume the structure as drawn.

What was measured:
hERG channel = hERG channel (Homo sapiens, UniProt Q12809); assay: hERG manual patch clamp assay; format: cell-based; details: HEK 293 cells stably expressing hERG channel, pH 7.35, 10 μM compound
Procedure: Cell Lines and Cell Culture
HEK 293 cell line stably expressing hERG channel (Cat # K1236) was purchased from Invitrogen. The cells were cultured in 85% DMEM, 10% dialyzed FBS, 0.1 mM NEAA, 25 mM HEPES, 100 U/mL Penicillin-Streptomycin and 5 μg/mL Blasticidin and 400 μg/mL Geneticin. Cells were split using TrypLE™ Express about three times a week, and maintained between ˜40% to ˜80% confluence. Before the assay, the cells were transferred onto the coverslips at 5×10^5 cells/per 6 cm cell culture dish and induced with doxycycline at 1 μg/mL for 48 hours.
• 1) External solution (in mM): 132 NaCl, 4 KCl, 3 CaCl2, 0.5 MgCl2, 11.1 glucose, and 10 HEPES (pH adjusted to 7.35 with NaOH) • 2) Internal solution (in mM): 140 KCl, 2 MgCl2, 10 EGTA, 10 HEPES and 5 MgATP (pH adjusted to 7.35 with KOH) • 3) hERG currents were tested in presence of 10 μM compound concentration with final concentration of DMSO of 0.1%. Experimental Procedure • 1) Removed the coverslip from the cell culture dish and placed it on the microscope stage in bath chamber. • 2) Located a desirable cell using the 10× objective. Located the tip of the electrode under the microscope using the 10× objective by focusing above the plane of the cells. Once the tip was in focus, advanced the electrode downwards towards the cell using the coarse controls of the manipulator, while simultaneously moving the objective to keep the tip in focus. • 3) When directly over the cell, switched to the 40× objective and used the fine controls of the manipulator to approach the surface of the cell in small steps. • 4) Applied gentle suction through the side-port of the electrode holder to form a gigaohm seal. • 5) Used the Cfast to remove the capacity current that was in coincidence with the voltage step. Obtained the whole cell configuration by applying repetitive, brief, strong suction until the membrane patch ruptured. • 6) Set membrane potential to −60 mV at this point to ensure that hERG channels were not • open. The spikes of capacity current should then be cancelled using the Cslow on the amplifier. 7) Set holding potential to −90 mV for 500 ms; recorded current at 50 kHz and filtered at 10 kHz. Leaking current was tested at −80 mV for 500 ms. • 8) The hERG current was elicited by depolarizing at +30 mV for 4.8 seconds and then the voltage was taken back to −50 mV for 5.2 seconds to remove the inactivation and observe the deactivating tail current. The maximum amount of tail current size was used to determine hERG current amplitude. • 9) Recorded current for 120 seconds to assess the current stability. Only stable cells with recording parameters above threshold were applied for the compound administrations. • 10) Firstly vehicle control was applied to the cells to establish the baseline. […] In order to ensure the good performance of cultured cells and operations, the positive control, Dofetilide, with 5 dose concentration was also used to test the same batch of cells. Data Analysis
The following criteria were used to determine data acceptability. • 1) Initial seal resistance >1 GΩ; • 2) Leak currents <50% of the control peak tail currents at any time; • 3) The peak tail amplitude >250 pA; • 4) Membrane resistance Rm>500 MΩ; • 5) Access resistance (Ra)<10 MΩ; • 6) Apparent run-down of peak current <2.5% per min.
Data that met the above criteria for hERG current quality were further analyzed as the following steps. • 1) Percent hERG current inhibition was calculated using the following equation. • Note: PatchMaster or Clampfit software was used to extract the peak current from the original data.
[formula] • 2) The dose response curve of test compounds was plotted with percentage of hERG current inhibition against the concentration of test compounds using Graphpad Prism 6.0, and fit to a sigmoid dose-response curve with a variable slope.

Kinetic solubility = format: physicochemical; details: Dulbecco's phosphate buffer saline (DPBS), aqueous buffer, kinetic from dmso stock, DPBS pH 7.4, 25° C., 200 μM test compound
Outline: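 Compound from 10 mM DMSO stock diluted to 200 μM final in DPBS pH 7.4 and, separately, in DMSO, in duplicate. Shaken 16 h at 25 °C, then centrifuged 20 min at 25 °C. Supernatant analysed by HPLC.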

[1] = tested on: Human Heme Oxygenase-1 (HMOX-1); assay: ELISA assay to measure human heme oxygenase-1 (HMOX-1) in HepG2 lysate; format: cell-based; details: for EC50: human HMOX1 protein level in HepG2 lysate, * = average of 2 or more EC50 determinations, NA = Not Active, read-out: EC50
Outline: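 HO-1 protein levels were read as fold change over DMSO-treated cells, with EC50 derived from these values. Quantitation used a chemiluminescent streptavidin-HRP capture ELISA, calibrated with an HO-1 standard series starting at 20 ng/ml, run at 20 °C. Samples were HepG2 lysates made with Triton X100/EDTA buffer and diluted 1:20.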

Chain of hERG channel (Q12809 whole entry): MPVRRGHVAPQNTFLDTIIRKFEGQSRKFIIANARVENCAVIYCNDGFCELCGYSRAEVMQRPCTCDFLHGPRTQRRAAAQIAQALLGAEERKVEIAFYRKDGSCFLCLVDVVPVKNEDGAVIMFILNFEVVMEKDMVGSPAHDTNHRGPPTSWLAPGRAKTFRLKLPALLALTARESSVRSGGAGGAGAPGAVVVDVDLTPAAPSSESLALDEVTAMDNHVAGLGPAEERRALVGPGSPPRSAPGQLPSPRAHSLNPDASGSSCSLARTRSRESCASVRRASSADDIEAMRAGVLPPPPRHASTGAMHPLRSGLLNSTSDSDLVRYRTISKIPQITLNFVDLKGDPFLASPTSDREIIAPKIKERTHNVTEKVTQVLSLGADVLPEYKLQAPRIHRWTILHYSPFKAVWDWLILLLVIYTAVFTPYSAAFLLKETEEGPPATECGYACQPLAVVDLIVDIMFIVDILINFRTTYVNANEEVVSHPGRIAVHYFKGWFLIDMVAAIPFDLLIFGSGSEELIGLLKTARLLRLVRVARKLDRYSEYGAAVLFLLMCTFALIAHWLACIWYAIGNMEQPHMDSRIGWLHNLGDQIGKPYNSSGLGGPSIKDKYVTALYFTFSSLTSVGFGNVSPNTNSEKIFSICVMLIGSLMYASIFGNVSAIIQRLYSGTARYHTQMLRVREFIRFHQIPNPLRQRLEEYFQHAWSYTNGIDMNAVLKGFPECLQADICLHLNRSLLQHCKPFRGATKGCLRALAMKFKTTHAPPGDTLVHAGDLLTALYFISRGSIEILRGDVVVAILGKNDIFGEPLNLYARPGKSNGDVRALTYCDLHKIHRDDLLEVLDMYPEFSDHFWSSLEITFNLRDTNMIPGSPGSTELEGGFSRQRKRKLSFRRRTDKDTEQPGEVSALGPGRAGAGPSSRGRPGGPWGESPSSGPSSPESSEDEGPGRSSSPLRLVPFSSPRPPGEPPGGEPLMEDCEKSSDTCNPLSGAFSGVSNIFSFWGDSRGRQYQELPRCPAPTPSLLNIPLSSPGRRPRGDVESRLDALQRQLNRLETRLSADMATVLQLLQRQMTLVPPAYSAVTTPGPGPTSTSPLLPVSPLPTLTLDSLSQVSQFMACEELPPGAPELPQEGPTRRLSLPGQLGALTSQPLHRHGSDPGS

SMILES	inhibition at 10 µM (hERG channel)	solubility at 16 h (Kinetic solubility)	Maximum Fold induction ([1]; fold change of human HMOX1 protein level relative to DMSO control, HepG2)	EC50 [1]
COCCNC(=O)c1ccc2c(c1)nc(Nc1nc3cc(OC(F)(F)F)ccc3[nH]1)n2C [Example 14, N-(2-methoxyethyl)-1-methyl-2-((5-(trifluoromethoxy)-1H-benzo[d]imidazol-2-yl)amino)-1H-benzo[d]imidazole-5-carboxamide]	87%	4.2 µM (≈ 1.88 µg/mL)	6.25 fold	2.3 µM
Cn1c(Nc2nc3ccccc3o2)nc2cc(C(=O)NCCO)ccc21 [Example 16, 2-(benzo[d]oxazol-2-ylamino)-N-(2-hydroxyethyl)-1-methyl-1H-benzo[d]imidazole-5-carboxamide]	35%	11.7 µM (≈ 4.11 µg/mL)		0.7 µM
Cl.Cn1c(Nc2nc3ccccc3o2)nc2cc(C(=O)NCCN)ccc21 [Example 18, N-(2-aminoethyl)-2-(benzo[d]oxazol-2-ylamino)-1-methyl-1H-benzo[d]imidazole-5-carboxamide hydrochloride]	12%	12.4 µM		0.7 µM
Cn1c(Nc2nc3ccccc3o2)nc2cc(C(=O)NCCN3CCOCC3)ccc21 [Example 20, 2-(benzo[d]oxazol-2-ylamino)-1-methyl-N-(2-morpholinoethyl)-1H-benzo[d]imidazole-5-carboxamide]	59%	7.3 µM (≈ 3.07 µg/mL)		1 µM
CC(O)CNC(=O)c1ccc2c(c1)nc(Nc1nc3ccccc3o1)n2C (stereo not drawn) [Example 23, 2-(benzo[d]oxazol-2-ylamino)-N-(2-hydroxypropyl)-1-methyl-1H-benzo[d]imidazole-5-carboxamide]	24%	> 20 µM		2.1 µM
CC(O)COCCNC(=O)c1ccc2c(c1)nc(Nc1nc3ccccc3o1)n2C (stereo not drawn) [Example 25]	8%	6.1 µM (≈ 2.5 µg/mL)		2.2 µM
Cn1c(Nc2nc3ccccc3o2)nc2cc(C(=O)NCC3(O)COC3)ccc21 [Example 26, 2-(benzo[d]oxazol-2-ylamino)-N-((3-hydroxyoxetan-3-yl)methyl)-1-methyl-1H-benzo[d]imidazole-5-carboxamide]	18%	8.6 µM (≈ 3.38 µg/mL)		2 µM
Cn1c(Nc2nc3ccccc3o2)nc2cc(C(=O)NCCN3CCCC3)ccc21 [Example 28, 2-(benzo[d]oxazol-2-ylamino)-1-methyl-N-(2-(pyrrolidin-1-yl)ethyl)-1H-benzo[d]imidazole-5-carboxamide]	64%	11.3 µM (≈ 4.57 µg/mL)		1.6 µM
Cn1c(Nc2nc3ccc(C(F)(F)F)cc3o2)nc2cc(C(=O)O)ccc21 [Example 31, 1-methyl-2-((6-(trifluoromethyl)benzo[d]oxazol-2-yl)amino)-1H-benzo[d]imidazole-5-carboxylic acid]	0%	14.9 µM (≈ 5.61 µg/mL)		1.1 µM
Cn1c(Nc2nc3ccc(C(F)(F)F)cc3o2)nc2cc(C(=O)NCCOCCO)ccc21 [Example 34]	61%	8 µM (≈ 3.71 µg/mL)		0.8 µM
Cn1c(Nc2nc3ccc(OC(F)(F)F)cc3o2)nc2cc(C(=O)NCCO)ccc21 [Example 53, N-(2-hydroxyethyl)-1-methyl-2-((6-(trifluoromethoxy)benzo[d]oxazol-2-yl)amino)-1H-benzo[d]imidazole-5-carboxamide]	70%	7.3 µM (≈ 3.18 µg/mL)		1.1 µM
COCCOc1ccc2nc(Nc3nc4cc(C(=O)NCCO)ccc4n3C)oc2c1 [Example 57, N-(2-hydroxyethyl)-2-((6-(2-methoxyethoxy)benzo[d]oxazol-2-yl)amino)-1-methyl-1H-benzo[d]imidazole-5-carboxamide]	15%	11.2 µM (≈ 4.76 µg/mL)		1.2 µM
COCCOc1ccc2nc(Nc3nc4cc(C(=O)NCCOCCO)ccc4n3C)oc2c1 [Example 58, N-(2-(2-hydroxyethoxy)ethyl)-2-((6-(2-methoxyethoxy)benzo[d]oxazol-2-yl)amino)-1-methyl-1H-benzo[d]imidazole-5-carboxamide]	11%	7.7 µM (≈ 3.62 µg/mL)		1.7 µM
Cn1c(Nc2nc3ccc(OC(F)F)cc3o2)nc2cc(C(=O)O)ccc21 [Example 62, 2-((6-(difluoromethoxy)benzo[d]oxazol-2-yl)amino)-1-methyl-1H-benzo[d]imidazole-5-carboxylic acid]	13%	16.2 µM (≈ 6.06 µg/mL)		5.1 µM
COCCNC(=O)c1ccc2c(c1)nc(Nc1nc3ccc(F)cc3o1)n2C [Example 69, 2-((6-fluorobenzo[d]oxazol-2-yl)amino)-N-(2-methoxyethyl)-1-methyl-1H-benzo[d]imidazole-5-carboxamide]	38%	< 5 µM		0.66 µM
COCCn1c(Nc2nc3cc(OC(F)(F)F)ccc3[nH]2)nc2cc(C(=O)O)ccc21 [Example 75, 1-(2-methoxyethyl)-2-((5-(trifluoromethoxy)-1H-benzo[d]imidazol-2-yl)amino)-1H-benzo[d]imidazole-5-carboxylic acid]	9%	11.6 µM (≈ 5.05 µg/mL)		0.37 µM
CCn1c(Nc2nc3ccc(OC(F)(F)F)cc3o2)nc2cc(C(=O)NCCO)ccc21 [Example 86, 1-ethyl-N-(2-hydroxyethyl)-2-((6-(trifluoromethoxy)benzo[d]oxazol-2-yl)amino)-1H-benzo[d]imidazole-5-carboxamide]	64%	7.1 µM (≈ 3.19 µg/mL)		1.3 µM
CN(C)CC(=O)NCCONC(=O)c1ccc2c(c1)nc(Nc1nc3ccccc3o1)n2C [Example 121, 2-(benzo[d]oxazol-2-ylamino)-N-(2-(2-(dimethylamino)acetamido)ethoxy)-1-methyl-1H-benzo[d]imidazole-5-carboxamide]	66%	9 µM (≈ 4.06 µg/mL)		1.4 µM
CN(C)CCONC(=O)c1ccc2c(c1)nc(Nc1nc3ccc(C(F)(F)F)cc3o1)n2C [Example 122, N-(2-(dimethylamino)ethoxy)-1-methyl-2-((6-(trifluoromethyl)benzo[d]oxazol-2-yl)amino)-1H-benzo[d]imidazole-5-carboxamide]	87%	5.1 µM (≈ 2.36 µg/mL)		0.4 µM
CN(C)CCONC(=O)c1ccc2c(c1)nc(Nc1nc3ccccc3o1)n2C [Example 123, 2-(benzo[d]oxazol-2-ylamino)-N-(2-(dimethylamino)ethoxy)-1-methyl-1H-benzo[d]imidazole-5-carboxamide]	54%	10.5 µM (≈ 4.14 µg/mL)		
COCCOc1ccc2nc(Nc3nc4cc(C(=O)NOCCO)ccc4n3C)oc2c1 [Example 128, N-(2-hydroxyethoxy)-2-((6-(2-methoxyethoxy)benzo[d]oxazol-2-yl)amino)-1-methyl-1H-benzo[d]imidazole-5-carboxamide]	18%	4.7 µM (≈ 2.07 µg/mL)		1.2 µM
